Experimental findings from PMC12363518, “Azobenzene-Modified Temperature-Responsive Short Elastin-like Peptides for Photo-Controlled Phase Transition” (ACS Synthetic Biology, 2025) are described below.

Numbered stars: 1 amine (or outer) side, 2 acyl side, 3 side chain; on linkers, the order of the positions; unused ones are H or OH. Bridge positions count the residues as written; N and C are the ends. Peptide text beside a SMILES is read from it. I, II: the chains in the order shown. X1 = O=C(c1ccc(N=Nc2ccc(C(=O)[*:2])cc2)cc1)[*:1]

This data set in a line: Turbidity measurement (OD600) of temperature-dependent phase separation, Tt. In kind it is physicochemical. The method, then:
The ability of the ELP–azobenzene conjugates to self-assemble was investigated by using turbidity measurements. In addition, we evaluated whether the photoisomerization of the azobenzene moieties induced differences in the aggregation ability of these analogues. Each peptide analogue was dissolved in PBS at different concentrations according to its water solubility. To quantitatively evaluate the aggregation ability, the transition temperature (T t) of the peptides was calculated from the change in optical density at a wavelength of 600 nm (OD600) associated with the increasing temperature (Table and Figure ).
The temperature-dependent self-assembly property of synthesized peptides was evaluated by using a JASCO V-660 spectral photometer (JASCO Co.). Each peptide was dissolved in PBS buffer or phosphate buffer solutions at various concentrations. Three types of phosphate buffers with the same ionic strength (μ = 0.100) but different pH (pH 7.4, 2.1, and 11.5) were prepared: phosphate buffer (pH 7.4, 29.4 mM Na2HPO4, 11.7 mM NaH2PO4), phosphate buffer (pH 2.1, 10.0 mM NaH2PO4, 10.5 mM phosphoric acid), and phosphate buffer (pH 11.5, 9.58 mM Na3PO4, 14.2 mM Na2HPO4). Turbidity was measured at 600 nm with increasing or decreasing temperature at a rate of 0.5 °C/min from 5 °C. The measurements were performed for the dark-adapted solution and after successive irradiation with UV light, visible light, and UV light. Each assay was repeated three times with different peptide solutions that were prepared separately. The phase separation property was described by the phase transition temperature (T t), which is the temperature at which the turbidity of the solution reaches half its maximum value.

`CC(C)[C@H](NC(=O)CNC(=O)[C@@H]1CCCN1C(=O)[C@H](Cc1ccccc1)NC(=O)CNC(=O)[C@@H](NC(=O)CNC(=O)[C@@H]1CCCN1C(=O)[C@H](Cc1ccccc1)NC(=O)[C@H](CCCCN)NC(=O)c1ccc(N=Nc2ccc(C(=O)N[C@@H](CCCCN)C(=O)N[C@@H](Cc3ccccc3)C(=O)N3CCC[C@H]3C(=O)NCC(=O)N[C@H](C(=O)NCC(=O)N[C@@H](Cc3ccccc3)C(=O)N3CCC[C@H]3C(=O)NCC(=O)N[C@H](C(=O)NCC(=O)O)C(C)C)C(C)C)cc2)cc1)C(C)C)C(=O)NCC(=O)O` [Azb-2(K-F2)] (I: KFPGVGFPGVG-OH / II: KFPGVGFPGVG-OH; linker I:N-II:N via X1): for the setting “after "UV" conditions 1 h, PBS pH 7.4, OD600, 0.5 °C/min, Tt at half-maximal turbidity, concentrations as in Table 2, n = 3”, the “Tt,UV (phase transition temperature)” value came out at 35.08 ± 0.30 °C. Moreover, under “after "UV–vis" conditions 1 h, PBS pH 7.4, OD600, 0.5 °C/min, Tt at half-maximal turbidity, concentrations as in Table 2, n = 3”, the “Tt,UV–vis (phase transition temperature)” value was 32.55 ± 0.67 °C. For the same compound, the “Tt,UV–vis–UV (phase transition temperature)” value (after "UV–vis–UV" conditions 1 h, PBS pH 7.4, OD600, 0.5 °C/min, Tt at half-maximal turbidity, concentrations as in Table 2, n = 3) is 35.94 ± 1.15 °C. The “Tt, UV in phosphate buffer (PB)” value (after UV irradiation, PB pH 7.4 (ionic strength 0.100), 3.00 mg/mL (1.27 mM), OD600) amounted to 31.42 ± 0.78 °C. For the same compound, the “Tt, dark in phosphate buffer (PB)” value (dark-adapted, PB pH 7.4 (ionic strength 0.100), Azb-2(K-F2) 3.00 mg/mL (1.27 mM), 2(D-F2)-Azb 1.50 mg/mL (0.66 mM), OD600) worked out at 27.57 ± 0.18 °C. In addition, under “dark-adapted, PBS pH 7.4, OD600, 0.5 °C/min from 5 °C, Tt at half-maximal turbidity, F2-Azb-F2 100 μM, F2-Azb-F2-NH2 50 μM, Azb-2(K-F2) 1.27 mM, 2(F2-D)-Azb 0.66 mM, n = 3 separately prepared solutions”, the “Tt,dark (phase transition temperature)” value is 32.09 ± 0.14 °C. Moreover, the “phase separation in acidic phosphate buffer” value (phosphate buffer pH 2.1, Azb-2(K-F2) 1.27 mM, 2(F2-D)-Azb 0.66 mM, turbidity OD600) is “did not show phase separation”. In addition, under “phosphate buffer pH 7.4, Azb-2(K-F2) 1.27 mM, 2(F2-D)-Azb 0.66 mM, turbidity OD600”, the “phase separation in neutral phosphate buffer” value was “underwent thermoresponsive phase separation”. Moreover, the “phase separation in basic phosphate buffer” value (phosphate buffer pH 11.5, Azb-2(K-F2) 1.27 mM, 2(F2-D)-Azb 0.66 mM, turbidity OD600) is recorded as “did not show phase separation”.
